Experimental data: PubChem BioAssay (NCI)
Values joined by “and” are separate entries in the source; they are usually repeats but may differ in a detail not shown here. Equal values may be shown once.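 Grown in 96-well plates, cells were treated for 48 hours with each compound at five concentrations. Insufficient inhibition: endpoint recorded as highest concentration tested. Here, GI50 denotes the concentration required for 50% inhibition of growth. Definition used: TGI = concentration required for complete inhibition of growth.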

Legend:
Experiment in all cases: NCI-60 cell line screen, 48 h
NCI-H522 lung = test system: NCI-H522 lung
HL-60(TB) leukemia = test system: HL-60(TB) leukemia
SNB-75 CNS = test system: SNB-75 CNS
HOP-62 NSCLC = test system: HOP-62 NSCLC
SF-268 CNS = test system: SF-268 CNS
786-0 renal = test system: 786-0 renal
SNB-19 CNS = test system: SNB-19 CNS
A549 NSCLC = test system: A549 NSCLC
OVCAR-3 ovarian = test system: OVCAR-3 ovarian
OVCAR-4 ovarian = test system: OVCAR-4 ovarian

SMILES	TGI (NCI-H522 lung)	TGI (HL-60(TB) leukemia)	TGI (SNB-75 CNS)	TGI (HOP-62 NSCLC)	TGI (SF-268 CNS)	TGI (786-0 renal)	TGI (SNB-19 CNS)	TGI (A549 NSCLC)	TGI (OVCAR-3 ovarian)	TGI (OVCAR-4 ovarian)	GI50 (NCI-H522 lung)	GI50 (HL-60(TB) leukemia)	GI50 (SNB-75 CNS)	GI50 (HOP-62 NSCLC)	GI50 (SF-268 CNS)	GI50 (786-0 renal)	GI50 (SNB-19 CNS)	GI50 (A549 NSCLC)	GI50 (OVCAR-3 ovarian)	GI50 (OVCAR-4 ovarian)
Cc1ccc(S(=O)(=O)N/N=C/c2oc(-c3ccncc3)c(-c3ccncc3)c2[N+](=O)[O-])cc1	> 100 µM	> 100 µM	> 100 µM	> 100 µM	> 100 µM	> 100 µM	> 100 µM	> 100 µM	> 100 µM	> 100 µM	–	–	–	–	–	–	–	–	–	–
O=C(c1ccc(F)c(F)c1Nc1ccc(I)cc1F)N1CC(O)([C@@H]2CCCCN2)C1	21.6 µM and > 10 µM	2.33 µM and > 10 µM	16 µM and > 10 µM	16.9 µM and > 10 µM	20.6 µM and > 10 µM	20.6 µM and > 10 µM	21.1 µM and > 10 µM	17 µM and > 10 µM	22.8 µM and > 10 µM	17.1 µM and > 10 µM	4.16 µM and 3.22 µM	< 0.0172 µM and 0.00962 µM	2.85 µM and 0.574 µM	0.349 µM and 0.067 µM	5.02 µM and 4.94 µM	5.74 µM and 3.82 µM	1.59 µM and 0.56 µM	0.25 µM and 0.48 µM	9.85 µM and > 10 µM	0.58 µM and > 3.96 µM
Cc1nc2cnc(N)c(C#Cc3cncc(C(=O)Nc4ccc(CN5CCN(C)CC5)c(C(F)(F)F)c4)c3)c2nc1C	3.86 µM	3.8 µM	3.39 µM	10.2 µM	10.3 µM	14.8 µM	16.9 µM	5.71 µM	9.66 µM	6.17 µM	0.276 µM	0.138 µM	1.35 µM	0.738 µM	0.64 µM	2.58 µM	4.36 µM	0.614 µM	0.824 µM	0.119 µM
O=C1CC(C[C@H](O)C2CCCCC2O)CC(=O)N1Cc1ccccc1 (stereo not given in full)	> 100 µM	> 100 µM	> 100 µM	> 100 µM	> 100 µM	> 100 µM	> 100 µM	> 100 µM	> 100 µM	> 100 µM	–	–	–	–	–	–	–	–	–	–
O=C(NCCCCN=c1cccccc1NCCCCNC(=O)OCc1ccccc1)OCc1ccccc1	36.8 µM	31.3 µM	39.6 µM	39 µM	63.8 µM	31.8 µM	79.8 µM	74.6 µM	29.5 µM	57.5 µM	–	–	–	–	–	–	–	–	–	–
Ic1ccc(-n2nnnc2-c2cnoc2-c2ccccc2)cc1	> 100 µM	> 100 µM	> 100 µM	> 100 µM	> 100 µM	> 100 µM	> 100 µM	> 100 µM	> 100 µM	> 100 µM	46.3 µM	78.9 µM	> 56.8 µM	53.3 µM	54 µM	60.2 µM	> 63.1 µM	> 58.4 µM	46.4 µM	> 64.2 µM
COc1cc(CNCCCN2C(=O)c3ccc4c5c(ccc(c35)C2=O)C(=O)N(CCCNCc2cc(OC)c(OC)c(OC)c2)C4=O)cc(OC)c1OC	1.14 µM	1.97 µM	1.33 µM	1.32 µM	2.27 µM	2.39 µM	1.25 µM	0.977 µM	0.382 µM	0.149 µM	0.409 µM	0.919 µM	0.589 µM	0.477 µM	0.542 µM	0.944 µM	0.398 µM	0.305 µM	0.143 µM	0.0751 µM
CC(=O)n1c2c(c(=O)n1-c1ccccc1)S(=O)CCC2 (stereo not given)	16.3 µM	> 70 µM	> 100 µM	28.2 µM	> 100 µM	> 78.6 µM	> 100 µM	> 100 µM	> 100 µM	44.4 µM	–	–	–	–	–	–	–	–	–	–
CCCn1c(N)c(C(=O)N/N=C(/C)c2cc3cccc(OC)c3o2)sc1=S	> 100 µM	> 100 µM	82.3 µM	30 µM	> 100 µM	51.6 µM	> 100 µM	> 100 µM	> 100 µM	> 100 µM	51.6 µM	> 100 µM	30.1 µM	11.8 µM	22.4 µM	25.5 µM	30.2 µM	12.5 µM	30.1 µM	49.7 µM
CCOC(=O)NC(=O)c1cn(CCOC(=O)NCCCCCCNC(=O)OCCn2cc(C(=O)NC(=O)OCC)c(=O)[nH]c2=O)c(=O)[nH]c1=O	> 100 µM	> 100 µM	> 100 µM	> 100 µM	> 100 µM	> 100 µM	> 100 µM	> 100 µM	> 100 µM	> 100 µM	–	–	–	–	–	–	–	–	–	–
Nc1nc(N)c(N=Nc2ccc([As](=O)(O)O)cc2)c(=O)[nH]1	> 100 µM	> 100 µM	> 100 µM	> 100 µM	> 100 µM	> 100 µM	> 100 µM	> 100 µM	> 100 µM	> 100 µM	–	–	–	–	–	–	–	–	–	–
COc1ccncc1C#Cc1cncc(C(=O)Nc2ccc(CN3CCN(C)CC3)c(C(F)(F)F)c2)c1	46 µM	46.7 µM	> 100 µM	> 100 µM	66.2 µM	> 100 µM	> 100 µM	> 100 µM	89.7 µM	> 100 µM	11.4 µM	7.4 µM	25.9 µM	20.9 µM	17.5 µM	35.8 µM	47 µM	27.4 µM	21.6 µM	6.07 µM
